Our source for the Ki values is ChEMBL document CHEMBL4118231, “Pyrroloquinoline scaffold-based 5-HT6R ligands: Synthesis, quantum chemical and molecular dynamic studies, and influence of nitrogen atom position in the scaffold on affinity” (Bioorg Med Chem, 2018).

For orientation: Ki means the dissociation constant of the complex between target and ligand, obtained from inhibition or displacement. A higher Ki goes with lower affinity.

For this test, the target named is 5-hydroxytryptamine receptor 6 (Homo sapiens, UniProt P50406). Briefly: Displacement of [3H]LSD from human 5-HT6R expressed in HEK293 cell membranes after 1 hr by microbeta counting method. A general note: Displacement assays read how much labelled ligand stays bound in the presence of the test substance.
5-hydroxytryptamine receptor 6, sequence (P50406 whole entry): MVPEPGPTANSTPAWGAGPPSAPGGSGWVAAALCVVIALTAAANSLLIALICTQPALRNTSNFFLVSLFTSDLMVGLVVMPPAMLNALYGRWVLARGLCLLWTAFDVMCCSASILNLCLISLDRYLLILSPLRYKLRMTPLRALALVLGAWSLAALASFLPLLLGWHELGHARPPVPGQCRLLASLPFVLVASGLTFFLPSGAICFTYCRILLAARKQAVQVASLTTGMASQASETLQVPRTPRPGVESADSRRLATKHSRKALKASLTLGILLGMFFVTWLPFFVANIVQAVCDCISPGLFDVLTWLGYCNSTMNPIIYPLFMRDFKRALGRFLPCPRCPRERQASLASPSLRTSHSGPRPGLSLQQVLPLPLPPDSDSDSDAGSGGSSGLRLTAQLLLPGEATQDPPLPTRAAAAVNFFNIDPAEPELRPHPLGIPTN

With `O=S(=O)(c1cccc(Cl)c1)n1cc(C2=CCNCC2)c2ccc3cccnc3c21`, the Ki was 49 nM.

Regarding `O=S(=O)(c1cccc(F)c1)n1cc(C2=CCNCC2)c2ccc3ncccc3c21`, the affinity corresponds to a Ki of 365 nM. The same measure for `O=S(=O)(c1cccc(Br)c1)n1cc(C2=CCNCC2)c2ccc3ncccc3c21`: 137 nM.

Turning to `O=S(=O)(c1ccccc1)n1cc(C2=CCNCC2)c2ccc3cccnc3c21`, the Ki was found to be 131 nM. This Ki and that of the compound before are within 1.5-fold of each other. Compound `O=S(=O)(c1cccc(Br)c1)n1cc(C2=CCNCC2)c2ccc3cccnc3c21` showed a Ki of 61 nM.

For `O=S(=O)(c1ccccc1)n1cc(C2=CCNCC2)c2ccc3ncccc3c21`, the Ki was determined as 711 nM. As to `O=S(=O)(c1cccc(Cl)c1)n1cc(C2=CCNCC2)c2ccc3ncccc3c21`, the Ki stood at 427 nM. In turn, `O=S(=O)(c1cccc(F)c1)n1cc(C2=CCNCC2)c2ccc3cccnc3c21` had a Ki of 45 nM.

`Clc1cccc(Cn2cc(C3=CCNCC3)c3ccc4cccnc4c32)c1` returned a Ki of 269 nM. This Ki lies about 6-fold higher than the previous one.
